Legend:
Experiment in all cases: KinomeScan
Format in all cases: binding
Conditions in all cases: 1 μM
FGFR1 = target: T1, FGFR1 (Homo sapiens, UniProt P11362)
T1 construct: purchased DiscoverX (KINOMEscan)

AURKB = target: T2, AURKB (Homo sapiens, UniProt Q96GD4)
T2 construct: purchased DiscoverX (KINOMEscan)

MAP3K2 = target: T3, MAP3K2 (Homo sapiens, UniProt Q9Y2U5)
T3 construct: purchased DiscoverX (KINOMEscan)

CLK3 = target: T4, CLK3 (Homo sapiens, UniProt P49761)
T4 construct: purchased DiscoverX (KINOMEscan)

EPHB3 = target: T5, EPHB3 (Homo sapiens, UniProt P54753)
T5 construct: purchased DiscoverX (KINOMEscan)

LTK = target: T6, LTK (Homo sapiens, UniProt P29376)
T6 construct: purchased DiscoverX (KINOMEscan)

CSNK1G2 = target: T7, CSNK1G2 (Homo sapiens, UniProt P78368)
T7 construct: purchased DiscoverX (KINOMEscan)

SNARK = target: T8, SNARK (Homo sapiens, UniProt Q9H093)
T8 construct: purchased DiscoverX (KINOMEscan)

TLK2 = target: T9, TLK2 (Homo sapiens, UniProt Q86UE8)
T9 construct: purchased DiscoverX (KINOMEscan)

MAP4K3 = target: T10, MAP4K3 (Homo sapiens, UniProt Q8IVH8)
T10 construct: purchased DiscoverX (KINOMEscan)

[1] = target: T11, TYK2(JH2domain-pseudokinase) (Homo sapiens, UniProt P29597)
T11 construct: TYK2(JH2domain-pseudokinase); purchased DiscoverX (KINOMEscan)

FRK = target: T12, FRK (Homo sapiens, UniProt P42685)
T12 construct: purchased DiscoverX (KINOMEscan)

LCK = target: T13, LCK (Homo sapiens, UniProt P06239)
T13 construct: purchased DiscoverX (KINOMEscan)

LRRK2 = target: T14, LRRK2 (Homo sapiens, UniProt Q5S007)
T14 construct: purchased DiscoverX (KINOMEscan)

HCK = target: T15, HCK (Homo sapiens, UniProt P08631)
T15 construct: purchased DiscoverX (KINOMEscan)

CDKL1 = target: T16, CDKL1 (Homo sapiens, UniProt Q00532)
T16 construct: purchased DiscoverX (KINOMEscan)

MEK5 = target: T17, MEK5 (Homo sapiens, UniProt Q13163)
T17 construct: purchased DiscoverX (KINOMEscan)

NDR2 = target: T18, NDR2 (Homo sapiens, UniProt Q9Y2H1)
T18 construct: purchased DiscoverX (KINOMEscan)

PIM2 = target: T19, PIM2 (Homo sapiens, UniProt Q9P1W9)
T19 construct: purchased DiscoveRx (KinomeScan, San Diego, CA, USA)

TNK1 = target: T20, TNK1 (Homo sapiens, UniProt Q13470)
T20 construct: purchased DiscoverX (KINOMEscan)

CDK3 = target: T21, CDK3 (Homo sapiens, UniProt Q00526)
T21 construct: purchased DiscoverX (KINOMEscan)

TNIK = target: T22, TNIK (Homo sapiens, UniProt Q9UKE5)
T22 construct: purchased DiscoverX (KINOMEscan)

MKK7 = target: T23, MKK7 (Homo sapiens, UniProt O14733)
T23 construct: purchased DiscoverX (KINOMEscan)

TAOK1 = target: T24, TAOK1 (Homo sapiens, UniProt Q7L7X3)
T24 construct: purchased DiscoverX (KINOMEscan)

MAST1 = target: T25, MAST1 (Homo sapiens, UniProt Q9Y2H9)
T25 construct: purchased DiscoverX (KINOMEscan)

JNK3 = target: T26, JNK3 (Homo sapiens, UniProt P53779)
T26 construct: purchased DiscoverX (KINOMEscan)

CDKL2 = target: T27, CDKL2 (Homo sapiens, UniProt Q92772)
T27 construct: purchased DiscoverX (KINOMEscan)

CSNK1A1 = target: T28, CSNK1A1 (Homo sapiens, UniProt P48729)
T28 construct: purchased DiscoverX (KINOMEscan)

EPHA7 = target: T29, EPHA7 (Homo sapiens, UniProt Q15375)
T29 construct: purchased DiscoverX (KINOMEscan)

MLK2 = target: T30, MLK2 (Homo sapiens, UniProt Q02779)
T30 construct: purchased DiscoverX (KINOMEscan)

TIE1 = target: T31, TIE1 (Homo sapiens, UniProt P35590)
T31 construct: purchased DiscoverX (KINOMEscan)

MYO3A = target: T32, MYO3A (Homo sapiens, UniProt Q8NEV4)
T32 construct: purchased DiscoverX (KINOMEscan)

MARK3 = target: T33, MARK3 (Homo sapiens, UniProt P27448)
T33 construct: purchased DiscoverX (KINOMEscan)

MRCKA = target: T34, MRCKA (Homo sapiens, UniProt Q5VT25)
T34 construct: purchased DiscoverX (KINOMEscan)

FGFR4 = target: T35, FGFR4 (Homo sapiens, UniProt P22455)
T35 construct: purchased DiscoverX (KINOMEscan)

CDK9 = target: T36, CDK9 (Homo sapiens, UniProt P50750)
T36 construct: purchased DiscoverX (KINOMEscan)

EPHA6 = target: T37, EPHA6 (Homo sapiens, UniProt Q9UF33)
T37 construct: purchased DiscoverX (KINOMEscan)

T28 sequence (P48729 whole entry): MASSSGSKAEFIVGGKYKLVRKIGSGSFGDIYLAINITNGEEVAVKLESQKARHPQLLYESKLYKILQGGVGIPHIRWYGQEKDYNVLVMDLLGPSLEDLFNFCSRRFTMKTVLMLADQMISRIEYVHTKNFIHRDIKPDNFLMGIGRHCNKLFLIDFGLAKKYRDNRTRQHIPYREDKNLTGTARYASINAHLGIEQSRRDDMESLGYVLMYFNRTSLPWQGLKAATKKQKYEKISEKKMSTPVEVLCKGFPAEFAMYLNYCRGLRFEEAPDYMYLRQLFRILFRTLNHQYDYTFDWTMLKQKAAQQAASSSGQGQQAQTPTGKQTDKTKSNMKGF
T4 sequence (P49761 whole entry): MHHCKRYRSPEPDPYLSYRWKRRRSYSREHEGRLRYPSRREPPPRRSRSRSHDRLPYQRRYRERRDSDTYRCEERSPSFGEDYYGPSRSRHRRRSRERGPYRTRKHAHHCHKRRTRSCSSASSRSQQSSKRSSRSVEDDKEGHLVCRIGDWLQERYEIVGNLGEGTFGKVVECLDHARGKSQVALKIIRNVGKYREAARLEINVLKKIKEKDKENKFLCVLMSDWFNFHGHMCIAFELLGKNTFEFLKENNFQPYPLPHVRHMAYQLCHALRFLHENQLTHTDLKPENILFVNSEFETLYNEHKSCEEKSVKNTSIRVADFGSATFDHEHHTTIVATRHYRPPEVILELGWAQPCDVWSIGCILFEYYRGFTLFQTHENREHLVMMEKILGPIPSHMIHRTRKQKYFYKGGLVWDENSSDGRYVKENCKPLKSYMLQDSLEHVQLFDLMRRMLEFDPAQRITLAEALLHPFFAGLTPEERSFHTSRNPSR
T32 sequence (Q8NEV4 whole entry): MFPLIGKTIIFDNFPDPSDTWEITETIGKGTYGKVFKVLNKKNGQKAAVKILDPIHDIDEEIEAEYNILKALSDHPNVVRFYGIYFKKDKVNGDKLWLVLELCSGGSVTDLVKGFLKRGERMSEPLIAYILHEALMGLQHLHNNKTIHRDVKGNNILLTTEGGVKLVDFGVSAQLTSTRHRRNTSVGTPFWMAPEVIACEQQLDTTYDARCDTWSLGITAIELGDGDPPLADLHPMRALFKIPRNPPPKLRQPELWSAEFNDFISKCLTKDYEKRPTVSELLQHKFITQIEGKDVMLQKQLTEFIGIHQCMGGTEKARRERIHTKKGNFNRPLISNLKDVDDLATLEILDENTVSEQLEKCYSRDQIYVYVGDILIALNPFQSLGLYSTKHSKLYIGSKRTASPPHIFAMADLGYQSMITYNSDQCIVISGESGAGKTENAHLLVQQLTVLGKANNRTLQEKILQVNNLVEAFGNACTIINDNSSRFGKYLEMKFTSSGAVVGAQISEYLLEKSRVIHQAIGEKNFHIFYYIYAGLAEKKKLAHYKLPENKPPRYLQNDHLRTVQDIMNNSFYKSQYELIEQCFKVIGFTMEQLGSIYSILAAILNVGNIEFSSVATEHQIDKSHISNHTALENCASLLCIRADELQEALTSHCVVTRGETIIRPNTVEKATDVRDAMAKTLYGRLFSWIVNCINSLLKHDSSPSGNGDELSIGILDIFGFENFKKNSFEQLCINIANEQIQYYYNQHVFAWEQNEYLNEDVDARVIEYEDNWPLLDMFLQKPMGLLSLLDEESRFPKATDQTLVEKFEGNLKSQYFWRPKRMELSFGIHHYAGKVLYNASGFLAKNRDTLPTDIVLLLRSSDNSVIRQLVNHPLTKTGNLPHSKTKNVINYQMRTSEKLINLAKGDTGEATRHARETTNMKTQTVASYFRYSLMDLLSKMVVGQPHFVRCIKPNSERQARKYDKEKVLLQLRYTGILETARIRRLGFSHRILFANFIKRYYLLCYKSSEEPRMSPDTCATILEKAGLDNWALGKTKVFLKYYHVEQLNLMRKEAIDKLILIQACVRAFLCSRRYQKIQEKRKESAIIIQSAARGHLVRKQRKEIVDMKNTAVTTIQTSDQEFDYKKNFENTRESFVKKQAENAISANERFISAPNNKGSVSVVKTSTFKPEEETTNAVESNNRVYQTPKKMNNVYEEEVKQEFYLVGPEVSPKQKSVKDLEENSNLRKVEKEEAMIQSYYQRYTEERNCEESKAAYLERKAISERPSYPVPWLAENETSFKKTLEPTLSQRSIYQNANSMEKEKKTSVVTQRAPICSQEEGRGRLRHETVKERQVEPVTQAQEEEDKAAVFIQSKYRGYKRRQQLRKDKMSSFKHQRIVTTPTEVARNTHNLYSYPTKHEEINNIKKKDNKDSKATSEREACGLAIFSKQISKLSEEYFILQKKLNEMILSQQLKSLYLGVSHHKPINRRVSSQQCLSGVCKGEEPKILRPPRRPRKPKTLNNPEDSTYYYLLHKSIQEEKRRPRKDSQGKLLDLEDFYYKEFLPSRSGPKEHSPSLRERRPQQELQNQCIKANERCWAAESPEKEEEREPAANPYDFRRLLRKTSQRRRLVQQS
T5 sequence (P54753 34-998): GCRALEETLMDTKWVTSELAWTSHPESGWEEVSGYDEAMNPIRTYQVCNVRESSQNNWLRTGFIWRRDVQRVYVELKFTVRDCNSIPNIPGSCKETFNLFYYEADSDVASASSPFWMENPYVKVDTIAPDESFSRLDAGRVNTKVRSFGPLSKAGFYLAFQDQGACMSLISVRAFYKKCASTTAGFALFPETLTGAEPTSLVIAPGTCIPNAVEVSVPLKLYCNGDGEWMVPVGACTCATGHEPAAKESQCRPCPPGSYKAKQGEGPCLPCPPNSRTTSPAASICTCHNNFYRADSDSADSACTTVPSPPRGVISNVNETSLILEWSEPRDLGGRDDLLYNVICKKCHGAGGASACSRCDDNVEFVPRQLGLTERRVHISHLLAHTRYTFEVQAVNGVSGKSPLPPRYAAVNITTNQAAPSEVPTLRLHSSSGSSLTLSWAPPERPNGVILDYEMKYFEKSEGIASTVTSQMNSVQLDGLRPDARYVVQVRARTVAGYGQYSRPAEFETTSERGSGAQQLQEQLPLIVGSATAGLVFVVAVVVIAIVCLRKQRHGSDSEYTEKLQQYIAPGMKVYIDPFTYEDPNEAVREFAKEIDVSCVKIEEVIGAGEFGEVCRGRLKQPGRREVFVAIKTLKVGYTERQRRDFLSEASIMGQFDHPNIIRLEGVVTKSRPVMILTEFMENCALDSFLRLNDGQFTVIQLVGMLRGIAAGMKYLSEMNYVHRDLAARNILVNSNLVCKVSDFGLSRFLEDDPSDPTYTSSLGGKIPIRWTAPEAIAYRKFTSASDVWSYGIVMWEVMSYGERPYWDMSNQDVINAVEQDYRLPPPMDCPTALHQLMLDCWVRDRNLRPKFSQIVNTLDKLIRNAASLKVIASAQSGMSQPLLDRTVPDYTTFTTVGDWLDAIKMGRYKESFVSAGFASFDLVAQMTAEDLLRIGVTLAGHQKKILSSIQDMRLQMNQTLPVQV
T33 sequence (P27448 whole entry): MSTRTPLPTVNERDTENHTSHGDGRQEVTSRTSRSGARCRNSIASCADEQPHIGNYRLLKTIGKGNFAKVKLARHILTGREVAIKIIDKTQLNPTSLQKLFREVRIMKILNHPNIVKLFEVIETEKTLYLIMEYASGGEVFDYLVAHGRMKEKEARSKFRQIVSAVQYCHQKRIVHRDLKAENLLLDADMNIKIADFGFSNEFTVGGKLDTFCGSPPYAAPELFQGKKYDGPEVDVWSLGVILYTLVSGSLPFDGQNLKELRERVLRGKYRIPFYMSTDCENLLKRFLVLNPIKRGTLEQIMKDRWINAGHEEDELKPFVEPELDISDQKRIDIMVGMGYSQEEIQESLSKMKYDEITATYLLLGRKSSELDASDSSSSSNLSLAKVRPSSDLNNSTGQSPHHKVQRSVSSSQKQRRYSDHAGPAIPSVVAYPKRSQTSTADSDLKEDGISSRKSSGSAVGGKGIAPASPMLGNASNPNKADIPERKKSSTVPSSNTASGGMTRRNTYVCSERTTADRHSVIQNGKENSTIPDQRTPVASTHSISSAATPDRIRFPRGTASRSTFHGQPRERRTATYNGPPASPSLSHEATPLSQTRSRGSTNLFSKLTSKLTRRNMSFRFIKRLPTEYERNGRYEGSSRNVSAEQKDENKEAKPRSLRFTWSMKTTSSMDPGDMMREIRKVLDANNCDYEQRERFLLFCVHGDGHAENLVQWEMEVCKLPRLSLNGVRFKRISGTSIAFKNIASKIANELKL
T8 sequence (Q9H093 whole entry): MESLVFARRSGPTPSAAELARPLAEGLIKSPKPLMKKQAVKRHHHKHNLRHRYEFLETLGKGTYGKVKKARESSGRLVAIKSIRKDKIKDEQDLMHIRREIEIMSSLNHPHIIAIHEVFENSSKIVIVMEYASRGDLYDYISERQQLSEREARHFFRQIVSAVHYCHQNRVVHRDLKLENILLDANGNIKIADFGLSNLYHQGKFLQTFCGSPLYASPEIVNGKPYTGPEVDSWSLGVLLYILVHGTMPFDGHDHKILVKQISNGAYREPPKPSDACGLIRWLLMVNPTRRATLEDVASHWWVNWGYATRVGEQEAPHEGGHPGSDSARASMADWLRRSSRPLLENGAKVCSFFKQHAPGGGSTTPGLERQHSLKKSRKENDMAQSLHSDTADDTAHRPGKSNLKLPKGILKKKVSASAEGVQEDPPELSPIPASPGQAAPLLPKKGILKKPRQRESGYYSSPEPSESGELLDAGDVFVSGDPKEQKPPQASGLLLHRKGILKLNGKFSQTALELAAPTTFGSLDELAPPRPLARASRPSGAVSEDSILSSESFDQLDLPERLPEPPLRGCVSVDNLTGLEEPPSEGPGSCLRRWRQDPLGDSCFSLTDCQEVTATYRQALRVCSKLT

COc1cc(/C=C2\N=C(N)NC2=O)ccc1O [Polyandrocarpamine A]
Score (FGFR1): 100
Score (AURKB): 100
Score (MAP3K2): 100
Score (CLK3): 69
Score (EPHB3): 100
Score (LTK): 100
Score (CSNK1G2): 100
Score (SNARK): 100
Score (TLK2): 100
Score (MAP4K3): 78
Score [1]: 100
Score (FRK): 100
Score (LCK): 100
Score (LRRK2): 100
Score (HCK): 100
Score (CDKL1): 100
Score (MEK5): 78
Score (NDR2): 91
Score (PIM2): 21
Score (TNK1): 100
Score (CDK3): 100
Score (TNIK): 100
Score (MKK7): 89
Score (TAOK1): 76
Score (MAST1): 100
Score (JNK3): 93
Score (CDKL2): 100
Score (CSNK1A1): 100
Score (EPHA7): 100
Score (MLK2): 100
Score (TIE1): 81
Score (MYO3A): 100
Score (MARK3): 100
Score (MRCKA): 100
Score (FGFR4): 98
Score (CDK9): 88
Score (EPHA6): 100

Source: PMC5666424, “Marine-Derived 2-Aminoimidazolone Alkaloids. Leucettamine B-Related Polyandrocarpamines Inhibit Mammalian and Protozoan DYRK & CLK Kinases” (Marine Drugs, 2017)
